{"source": "paper PMC5218480", "about": "(PLoS ONE, 2017)", "tested_on": "MV-4-11 cells", "assay": "Gene expression microarray analysis (Affymetrix PrimeView) and GSEA", "format": "cell-based, human", "details": "gene VPS36, vacuolar protein sorting 36 homolog; Azacitidine 1 mM; LIST F"}
{"smiles": "Nc1ncn([C@@H]2O[C@H](CO)[C@@H](O)[C@H]2O)c(=O)n1", "note": "[azacitidine]", "values": [{"measurement": "RFU, VPS36 (ProbeSet 11739960_a_at)", "value": 118.04, "unit": "RFU"}]}
